Laboratory results as given in patent publication US20110166121A1 (LG LIFE SCIENCES LTD., priority 2008, published 2011).

Experiments:
[1] = test system: Human platelet aggregation caused by ADP; assay: Inhibition of ADP-induced platelet aggregation (Mimic-human PRP); assay type: cell-based; settings: 20 μM ADP, human platelet concentrate diluted with PPP, absorption at 595 nm
How it was run: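 Human PRP diluted with PPP to 3–4×10^8 platelets/mL was preincubated 20 min at room temperature with compound (0.01–30 μM, DMSO), then stimulated with 20 μM ADP. Aggregation read as A595 increase at 3 min versus 0 and 20 μM ADP controls; Ki from sigmoidal non-linear regression.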

Human P2Y12 receptor = molecular target: T1, Human P2Y12 receptor (Homo sapiens, UniProt Q9H244); assay: Human P2Y12 receptor cell membrane binding assay with [3H] 2-Mes-ADP; settings: 1 nM [3H] 2-Mes-ADP, membranes of HEK cells expressing P2Y12 receptor; read-out: Binding activity (IC50)
T1 construct: expressed in transfected cells; host or cells: HEK cells
How it was run: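 Membranes from HEK cells expressing human P2Y12 were incubated with compound and 1 nM [3H]2-MeS-ADP for 1 h at room temperature. Bound radioactivity was collected by GF/B filtration.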

T1 sequence (Q9H244 whole entry): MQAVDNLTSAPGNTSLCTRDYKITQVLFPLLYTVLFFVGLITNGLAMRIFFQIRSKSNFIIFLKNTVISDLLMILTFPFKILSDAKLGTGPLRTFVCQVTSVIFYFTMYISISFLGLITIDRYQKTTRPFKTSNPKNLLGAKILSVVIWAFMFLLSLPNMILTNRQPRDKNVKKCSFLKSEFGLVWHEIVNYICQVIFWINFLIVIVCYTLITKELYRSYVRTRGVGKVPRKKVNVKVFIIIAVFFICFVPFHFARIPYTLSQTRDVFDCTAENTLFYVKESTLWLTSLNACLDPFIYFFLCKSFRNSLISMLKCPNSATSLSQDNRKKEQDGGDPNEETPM

SMILES	Ki [1]	IC50 (Human P2Y12 receptor)
CCCc1cc2c(N3CCn4c(nnc4C(F)(F)F)C3)nc(Oc3ccc(OCC(=O)OC)cc3)nc2s1 [Example 3-43, {4-[6-Propyl-4-(3-trifluoromethyl-5,6-dihydro-8H-[1,2,4]triazolo[4,3-a]pyrazin-7-yl)-thieno[2,3-d]pyrimidin-2-yloxy]-phenoxy}-acetic acid methyl ester]	> 4000 nM	650 nM
CCCc1cc2c(N3CCn4c(nnc4C(F)(F)F)C3)nc(Oc3ccc(OCC(=O)O)cc3)nc2s1 [Example 3-44, {4-[6-Propyl-4-(3-trifluoromethyl-5,6-dihydro-8H-[1,2,4]triazolo[4,3-a]pyrazin-7-yl)-thieno[2,3-d]pyrimidin-2-yloxy]-phenoxy}-acetic acid]	500 nM	180 nM
CCCc1cc2c(N3CCn4c(nnc4C(F)(F)F)C3)nc(Oc3cccc(N4CCNCC4)c3)nc2s1 [Example 3-45, 7-[2-(3-piperazin-1-yl-phenoxy)-6-propyl-thieno[2,3-d]pyrimidin-4-yl]-3-trifluoromethyl-5,6,7,8-tetrahydro-[1,2,4]triazolo[4,3-a]pyrazine]	> 4000 nM	1900 nM
CCCc1cc2c(N3CCn4c(nnc4C(F)(F)F)C3)nc(Oc3ccc(N4CCNCC4)cc3)nc2s1 [Example 3-46, 7-[2-(4-piperazin-1-yl-phenoxy)-6-propyl-thieno[2,3-d]pyrimidin-4-yl]-3-trifluoromethyl-5,6,7,8-tetrahydro-[1,2,4]triazolo[4,3-a]pyrazine]	> 4000 nM	2330 nM
CCCc1cc2c(N3CCn4c(nnc4C(F)(F)F)C3)nc(Oc3ccc(C=O)cc3)nc2s1 [Example 3-47, 4-[6-Propyl-4-(3-trifluoromethyl-5,6-dihydro-8H-[1,2,4]triazolo[4,3-a]pyrazin-7-yl)-thieno[2,3-d]pyrimidin-2-yloxy]-benzaldehyde]	> 4000 nM	375 nM
CCCc1cc2c(N3CCn4c(nnc4C(F)(F)F)C3)nc(Oc3ccc(CO)cc3)nc2s1 [Example 3-48, {4-[6-Propyl-4-(3-trifluoromethyl-5,6-dihydro-8H-[1,2,4]triazolo[4,3-a]pyrazin-7-yl)-thieno[2,3-d]pyrimidin-2-yloxy]-phenyl}-methanol]	> 4000 nM	340 nM
CCc1cc2c(N3CCn4c(nnc4C(F)(F)F)C3)nc(OCCO)nc2s1 [Example 3-50, 2-[6-Ethyl-4-(3-trifluoromethyl-5,6-dihydro-8H-[1,2,4]triazolo[4,3-a]pyrazin-7-yl)-thieno[2,3-d]pyrimidin-2-yloxy]-ethanol]	141 nM	596 nM
CCCc1cc2c(N3CCn4c(nnc4C(F)(F)F)C3)nc(SCc3ccccc3)nc2s1 [Example 3-51, 7-(2-Benzylsulfanyl-6-propyl-thieno[2,3-d]pyrimidin-4-yl)-3-trifluoromethyl-5,6,7,8-tetrahydro-[1,2,4]triazolo[4,3-a]pyrazine]	1170 nM	700 nM
CCCc1cc2c(N3CCn4c(nnc4C(F)(F)F)C3)nc(Sc3ncccn3)nc2s1 [Example 3-53, 7-[6-Propyl-2-(pyrimidin-2-ylsulfanyl)-thieno[2,3-d]pyrimidin-4-yl]-3-trifluoromethyl-5,6,7,8-tetrahydro-[1,2,4]triazolo[4,3-a]pyrazine]	760 nM	570 nM
CCCc1cc2c(N3CCn4c(nnc4C(F)(F)F)C3)nc(OCCNCC(=O)O)nc2s1 [Example 3-55, {2-[6-Propyl-4-(3-trifluoromethyl-5,6-dihydro-8H-[1,2,4]triazolo[4,3-a]pyrazin-7-yl)-thieno[2,3-d]pyrimidin-2-yloxy]-ethylamino}-acetic acid]	25 nM	150 nM
CCCc1cc2c(N3CCn4c(nnc4C(F)(F)F)C3)nc(OCCN)nc2s1 [Example 3-58, 2-[6-Propyl-4-(3-trifluoromethyl-5,6-dihydro-8H-[1,2,4]triazolo[4,3-a]pyrazin-7-yl)-thieno[2,3-d]pyrimidin-2-yloxy]-ethylamine]	21 nM	400 nM
CCCc1cc2c(N3CCn4c(nnc4C(F)(F)F)C3)nc(OCCNC(=O)COC)nc2s1 [Example 3-63, 2-Methoxy-N-{2-[6-propyl-4-(3-trifluoromethyl-5,6-dihydro-8H-[1,2,4]triazolo[4,3-a]pyrazin-7-yl)-thieno[2,3-d]pyrimidin-2-yloxy]-ethyl}-acetamide]	7 nM	43 nM
CCCc1cc2c(N3CCn4c(nnc4C(F)(F)F)C3)nc(OCCNS(C)(=O)=O)nc2s1 [Example 3-64, N-{2-[6-Propyl-4-(3-trifluoromethyl-5,6-dihydro-8H-[1,2,4]triazolo[4,3-a]pyrazin-7-yl)-thieno[2,3-d]pyrimidin-2-yloxy]-ethyl}-methanesulfonamide]	150 nM	110 nM
CCCc1cc2c(N3CCn4c(nnc4C(F)(F)F)C3)nc(OCCNC(=O)CN)nc2s1 [Example 3-65, 2-Amino-N-{2-[6-propyl-4-(3-trifluoromethyl-5,6-dihydro-8H-[1,2,4]triazolo[4,3-a]pyrazin-7-yl)-thieno[2,3-d]pyrimidin-2-yloxy]-ethyl}-acetamide]	13 nM	180 nM
CCCc1cc2c(N3CCn4c(nnc4C(F)(F)F)C3)nc(OCCNC(=O)CS(C)(=O)=O)nc2s1 [Example 3-66, 2-Methanesulfonyl-N-{2-[6-propyl-4-(3-trifluoromethyl-5,6-dihydro-8H-[1,2,4]triazolo[4,3-a]pyrazin-7-yl)-thieno[2,3-d]pyrimidin-2-yloxy]-ethyl}-acetamide]	70 nM	150 nM
CCCc1cc2c(N3CCn4c(nnc4C(F)(F)F)C3)nc(OCCNC(=O)CCCS(N)(=O)=O)nc2s1 [Example 3-67, N-{2-[6-Propyl-4-(3-trifluoromethyl-5,6-dihydro-8H-[1,2,4]triazolo[4,3-a]pyrazin-7-yl)-thieno[2,3-d]pyrimidin-2-yloxy]-ethyl}-4-sulfamoyl-butyramide]	17 nM	90 nM
CCCc1cc2c(N3CCn4c(nnc4C(F)(F)F)C3)nc(OCCNS(=O)(=O)C3CC3)nc2s1 [Example 3-68, Cyclopropanesulfonic Acid {2-[6-propyl-4-(3-trifluoromethyl-5,6-dihydro-8H-[1,2,4]triazolo[4,3-a]pyrazin-7-yl)-thieno[2,3-d]pyrimidin-2-yloxy]-ethyl}-amide]	120 nM	140 nM
CCCc1cc2c(N3CCn4c(nnc4C(F)(F)F)C3)nc(OCCNS(=O)(=O)C(F)(F)F)nc2s1 [Example 3-69, C,C,C-Trifluoro-N-{2-[6-propyl-4-(3-trifluoromethyl-5,6-dihydro-8H-[1,2,4]triazolo[4,3-a]pyrazin-7-yl)-thieno[2,3-d]pyrimidin-2-yloxy]-ethyl}-methanesulfonamide]	4100 nM	180 nM
CCCc1cc2c(N3CCn4c(nnc4C(F)(F)F)C3)nc(OCCNC(=O)c3ccccn3)nc2s1 [Example 3-70, Pyridine-2-carboxylic acid {2-[6-propyl-4-(3-trifluoromethyl-5,6-dihydro-8H-[1,2,4]triazolo[4,3-a]pyrazin-7-yl)-thieno[2,3-d]pyrimidin-2-yloxy]-ethyl}-amide]	7 nM	17 nM
CCCc1cc2c(N3CCn4c(nnc4C(F)(F)F)C3)nc(C(N)=O)nc2s1 [Example 4-3, 6-Propyl-4-(3-trifluoromethyl-5,6-dihydro-8H-[1,2,4]triazolo[4,3-a]pyrazin-7-yl)-thieno[2,3-d]pyrimidine-2-carboxylic acid amide]	120 nM	630 nM
CCCc1cc2c(N3CCn4c(nnc4C(F)(F)F)C3)nc(C(=O)NCCC(=O)OCC)nc2s1 [Example 4-6, 3-{[6-Propyl-4-(3-trifluoromethyl-5,6-dihydro-8H-[1,2,4]triazolo[4,3-a]pyrazin-7-yl)thieno[2,3-d]pyrimidine-2-carbonyl]amino}propionic acid ethyl ester]	1200 nM	2890 nM
CCCc1cc2c(N3CCn4c(nnc4C(F)(F)F)C3)nc(C(=O)NCCC(=O)O)nc2s1 [Example 4-7, 3-{[6-Propyl-4-(3-trifluoromethyl-5,6-dihydro-8H-[1,2,4]triazolo[4,3-a]pyrazin-7-yl)thieno[2,3-d]pyrimidine-2-carbonyl]amino}propionic acid]	320 nM	620 nM
CCCc1cc2c(N3CCn4c(nnc4C(F)(F)F)C3)nc(C(=O)NCC(=O)OCC)nc2s1 [Example 4-8, {[6-Propyl-4-(3-trifluoromethyl-5,6-dihydro-8H-[1,2,4]triazolo[4,3-a]pyrazin-7-yl)thieno[2,3-d]pyrimidine-2-carbonyl]amino}acetic acid ethyl ester]	550 nM	470 nM
CCCc1cc2c(N3CCn4c(nnc4C(F)(F)F)C3)nc(C(=O)NCC(=O)O)nc2s1 [Example 4-9, {[6-Propyl-4-(3-trifluoromethyl-5,6-dihydro-8H-[1,2,4]triazolo[4,3-a]pyrazin-7-yl)thieno[2,3-d]pyrimidine-2-carbonyl]amino}acetic acid]	5100 nM	1100 nM
CCCc1cc2c(N3CCn4c(nnc4C(F)(F)F)C3)nc(C(=O)NCC(O)CO)nc2s1 (stereo not shown) [Example 4-10, 6-Propyl-4-(3-trifluoromethyl-5,6-dihydro-8H-[1,2,4]triazolo[4,3-a]pyrazin-7-yl)thieno[2,3-d]pyrimidine-2-carboxylic acid (2,3-dihydroxy-propyl)amide]	200 nM	1550 nM
CCCc1cc2c(N3CCn4c(nnc4C(F)(F)F)C3)nc(C(=O)NCCC#N)nc2s1 [Example 4-11, 6-Propyl-4-(3-trifluoromethyl-5,6-dihydro-8H-[1,2,4]triazolo[4,3-a]pyrazin-7-yl)thieno[2,3-d]pyrimidine-2-carboxylic acid (2-cyanoethyl)amide]	600 nM	660 nM
